Experimental data reported in patent US20070149404A1, “Microbicidal compositions” (BASF AKTIENGESELLSCHAFT, priority 2003, published 2007).

How the values were obtained:
Micrococcus luteus = experiment: Intrinsic activity, microtitre plate method, ML; type: cell-based; design: key: rating 0 = no activity to 5 = biostatic, may be biocide
Description: (§1) The chemistries were tested for their activity against a range of organisms via a microtitre plate method. The test organisms were: • ML—Micrococcus luteus • SA—Staphylococcus aureus • EC—Escherichia coli • PA—Pseudomonas aeruginosa • CF—Citrobacter freundii • PM—Proteus mirabilis • CA—Candida albicans • SC—Saccharomyces cerevisiae • AN—Aspergillus niger • PF—Penicillium funiculosum • AA—Alternaria alternata
(§2) Using the following rating scale: • 0=no activity • 1=minimal inhibition • 2=inhibition • 3=clear inhibition • 4=clear inhibition biostatic, may be biocide activity • 5=biostatic, may be biocide activity
(§3) Readings of 4 and possibly 3 were considered to be valid for biocidal applications.

Staphylococcus aureus = experiment: Intrinsic activity, microtitre plate method, SA; type: cell-based; design: key: 0 = no activity to 5 = biostatic, may be biocide activity
Description: as §1, §2, §3

Escherichia coli = experiment: Intrinsic activity, microtitre plate method, EC; type: cell-based; design: key: rating 0 = no activity to 5 = biostatic, may be biocide
Description: as §1, §2, §3

Pseudomonas aeruginosa = experiment: Intrinsic activity, microtitre plate method, PA; type: cell-based; design: key: rating 0 = no activity to 5 = biostatic, may be biocide
Description: as §1, §2, §3

Citrobacter freundii = experiment: Intrinsic activity, microtitre plate method, CF; type: cell-based; design: key: rating 0 = no activity to 5 = biostatic, may be biocide
Description: as §1, §2, §3

Proteus mirabilis = experiment: Intrinsic activity, microtitre plate method, PM; type: cell-based; design: key: rating 0 = no activity to 5 = biostatic, may be biocide
Description: as §1, §2, §3

Bacteria = experiment: Intrinsic activity, microtitre plate method, mean score over bacteria; type: cell-based, ML, SA, EC, PA, CF, PM; conditions: performance against organisms/no of organisms, 0 to <3 poor, >3 inhibition, >4 biostasis, biocidal activity
Description: as §1, §2, §3

Candida albicans = experiment: Intrinsic activity, microtitre plate method, CA; type: cell-based; design: key: rating 0 = no activity to 5 = biostatic, may be biocide
Description: as §1, §2, §3

Saccharomyces cerevisiae = experiment: Intrinsic activity, microtitre plate method, SC; type: cell-based; design: key: rating 0 = no activity to 5 = biostatic, may be biocide
Description: as §1, §2, §3

Aspergillus niger = experiment: Intrinsic activity, microtitre plate method, AN; type: cell-based; design: key: rating 0 = no activity to 5 = biostatic, may be biocide
Description: as §1, §2, §3

Penicillium funiculosum = experiment: Intrinsic activity, microtitre plate method, PF; type: cell-based; design: key: rating 0 = no activity to 5 = biostatic, may be biocide
Description: as §1, §2, §3

Alternaria alternata = experiment: Intrinsic activity, microtitre plate method, AA; type: cell-based; design: key: rating 0 = no activity to 5 = biostatic, may be biocide
Description: as §1, §2, §3

Fungi [1] = experiment: Intrinsic activity, microtitre plate method, mean score over fungi; type: cell-based, CA, SC, AN, PF, AA; conditions: performance against organisms/no of organisms, 0 to <3 poor, >3 inhibition, >4 biostasis, biocidal activity
Description: as §1, §2, §3

[2] = Solubility in water at room temperature
algae = experiment: Efficacy against algal growth on painted plaster surface (BBA MOAT 33); type: cell-based; conditions: 0.5% in paint; for MEAN ALGAL GROWTH RATING 28 days / MEAN ALGAL GROWTH RATING 56 days / % Improved after 56 days (algal growth): painted plaster; for MEAN ALGAL GROWTH RATING 28 days / MEAN ALGAL GROWTH RATING 56 days: leached 72 hours, mean of ratings 0-5; for MEAN ALGAL GROWTH RATING 28 days: 28 days after inoculation; for MEAN ALGAL GROWTH RATING 56 days: 56 days after inoculation; for % Improved after 56 days (algal growth): versus unpreserved paint
Description: (§4) Testing was performed according to the BS3900 G6 and BBA MOAT 33 methods for evaluation versus fungi and algae, respectively. The methods involve painting a substrate panel with the coating and leaching under running water for 72 hours. The substrates are incubated for 56 days after being inoculated with fungi or algae. Performance is judged by comparing with suitable control samples ie without biocide, a positive control and for fungi with substrate panels that have not been leached.
(§5) Performance rating on painted test substrates (Score of 0, 1 and 2 is considered as a pass) • 0=no growth • 1=trace of growth • 2=growth on 1-10% of test face • 3=growth on 10-30% of test face • 4=growth on 30-70% of test face
(§6) 5=growth on 70-100% of test face.

fungi [3] = experiment: Efficacy against fungal growth on painted plaster surface (BS3900 G6); type: cell-based; conditions: 0.5% in paint; for Improvement against fungal growth on the plaster surface: as applied or after leaching; for MEAN FUNGAL GROWTH RATING - PLASTER SUBSTRATE 28 days leached / MEAN FUNGAL GROWTH RATING - PLASTER SUBSTRATE 56 days leached: constant running water for 72 hours; for MEAN FUNGAL GROWTH RATING - PLASTER SUBSTRATE 28 days leached / MEAN FUNGAL GROWTH RATING - PLASTER SUBSTRATE 56 days leached / MEAN FUNGAL GROWTH RATING - PLASTER SUBSTRATE 28 days as applied / MEAN FUNGAL GROWTH RATING - PLASTER SUBSTRATE 56 days as applied: mean of ratings 0-5; for % Improved After 56 days leached (fungal, plaster): leached 72 hours; for % Improved After 56 days leached (fungal, plaster) / % Improved After 56 days as applied (fungal, plaster): versus unpreserved paint; for MEAN FUNGAL GROWTH RATING - PLASTER SUBSTRATE 28 days as applied / MEAN FUNGAL GROWTH RATING - PLASTER SUBSTRATE 56 days as applied: no leaching with water; for % Improved After 56 days as applied (fungal, plaster): no leaching
Description: Testing was performed according to the BS3900 G6 and BBA MOAT 33 methods for evaluation versus fungi and algae, respectively. The methods involve painting a substrate panel with the coating and leaching under running water for 72 hours. […] Performance is judged by comparing with suitable control samples ie without biocide, a positive control and for fungi with substrate panels that have not been leached.
as §5, §6

fungi [4] = experiment: Efficacy against fungal growth on painted wooden surface (BS3900 G6); type: cell-based; conditions: 0.5% in paint
Description: as §4, §5, §6

test bacteria and fungi = experiment: Intrinsic activity against bacteria and fungi, microtitre plate method, summary in words; type: cell-based; conditions: at both concentrations (1000 and 500 ppm a.i.)
Description: as §1, §2, §3

Row | Molecule | ML rating (Micrococcus luteus; 500 ppm a.i.) | ML rating (Micrococcus luteus; 1000 ppm a.i.) | SA rating (Staphylococcus aureus; 500 ppm a.i.) | SA rating (Staphylococcus aureus; 1000 ppm a.i.) | EC rating (Escherichia coli; 500 ppm a.i.) | EC rating (Escherichia coli; 1000 ppm a.i.) | PA rating (Pseudomonas aeruginosa; 500 ppm a.i.) | PA rating (Pseudomonas aeruginosa; 1000 ppm a.i.) | CF rating (Citrobacter freundii; 500 ppm a.i.) | CF rating (Citrobacter freundii; 1000 ppm a.i.) | PM rating (Proteus mirabilis; 500 ppm a.i.) | PM rating (Proteus mirabilis; 1000 ppm a.i.) | Bacteria Mean Score (Bacteria; 500 ppm a.i.) | Bacteria Mean Score (Bacteria; 1000 ppm a.i.) | CA rating (Candida albicans; 500 ppm a.i.) | CA rating (Candida albicans; 1000 ppm a.i.) | SC rating (Saccharomyces cerevisiae; 500 ppm a.i.) | SC rating (Saccharomyces cerevisiae; 1000 ppm a.i.) | AN rating (Aspergillus niger; 500 ppm a.i.) | AN rating (Aspergillus niger; 1000 ppm a.i.) | also measured
1 | O=C(O)COc1ccc(Cl)cc1Cl [2,4-D, 2,4-Dichlorphenoxy acetic acid] | 2 | 5 | 3 | 3 | 0 | 3 | 0 | 3 | 0 | 5 | 1 | 2 | 1.0 | 3.5 | 5 | 5 | 1 | 3 | 0 | 5 | PF rating (Penicillium funiculosum; 500 ppm a.i.): 3; PF rating (Penicillium funiculosum; 1000 ppm a.i.): 5; AA rating (Alternaria alternata; 500 ppm a.i.): 5; AA rating (Alternaria alternata; 1000 ppm a.i.): 5; Fungi Mean Score (Fungi [1]; 500 ppm a.i.): 2.8; Fungi Mean Score (Fungi [1]; 1000 ppm a.i.): 4.6; Aq. Solubility (ppm) [2]: 600 ppm
2 | Fc1ccc([C@@]2(Cn3cncn3)O[C@H]2c2ccccc2Cl)cc1 [Epoxiconazole, cis-3-(2-Chlorphenyl)-2-(4-fluorphenyl)-2-(triazol-1-ylmethyl)-oxiran] | 0 | 0 | 0 | 0 | 0 | 0 | 0 | 0 | 0 | 0 | 0 | 0 | 0.0 | 0.0 | 5 | 5 | 5 | 5 | 5 | 5 | MEAN ALGAL GROWTH RATING 28 days (algae): 2.5; MEAN ALGAL GROWTH RATING 56 days (algae): 2.5; % Improved after 56 days (algal growth) (algae): 37.5%; Improvement against algal growth on the plaster surface (algae): exhibited an improvement; Improvement against fungal growth on the plaster surface (fungi [3]): exhibited an improvement; MEAN FUNGAL GROWTH RATING - PLASTER SUBSTRATE 28 days leached (fungi [3]): 1.5; MEAN FUNGAL GROWTH RATING - PLASTER SUBSTRATE 56 days leached (fungi [3]): 2.5; % Improved After 56 days leached (fungal, plaster) (fungi [3]): 29%; MEAN FUNGAL GROWTH RATING - PLASTER SUBSTRATE 28 days as applied (fungi [3]): 3.5; MEAN FUNGAL GROWTH RATING - PLASTER SUBSTRATE 56 days as applied (fungi [3]): 3.5; % Improved After 56 days as applied (fungal, plaster) (fungi [3]): 30%; Improvement against fungal growth on the wood surface (fungi [4]): only showed marginal improvement; PF rating (Penicillium funiculosum; 500 ppm a.i.): 3; PF rating (Penicillium funiculosum; 1000 ppm a.i.): 3; AA rating (Alternaria alternata; 500 ppm a.i.): 5; AA rating (Alternaria alternata; 1000 ppm a.i.): 5; Fungi Mean Score (Fungi [1]; 500 ppm a.i.): 4.6; Fungi Mean Score (Fungi [1]; 1000 ppm a.i.): 4.6; Spectrum of activity (test bacteria and fungi): only display antifungal activity
3 | CC(Cc1ccc(C(C)(C)C)cc1)CN1C[C@@H](C)O[C@@H](C)C1 (stereo partly drawn) [Fenpropimorph, 4-[2-Methyl-3-(p-tert.butyl-phenyl)-propyl]-2,6-cis-dimethylmorpholin] | 0 | 2 | 0 | 0 | 0 | 0 | 0 | 0 | 0 | 0 | 0 | 0 | 0.0 | 0.3 | 5 | 5 | 5 | 5 | 5 | 5 | MEAN ALGAL GROWTH RATING 28 days (algae): 2 (2=growth on 1-10% of test face); MEAN ALGAL GROWTH RATING 56 days (algae): 3 (3=growth on 10-30% of test face); % Improved after 56 days (algal growth) (algae): 25.0%; Improvement against algal growth on the plaster surface (algae): exhibited an improvement; Improvement against fungal growth on the plaster surface (fungi [3]): exhibited an improvement; MEAN FUNGAL GROWTH RATING - PLASTER SUBSTRATE 28 days leached (fungi [3]): 3 (3=growth on 10-30% of test face); MEAN FUNGAL GROWTH RATING - PLASTER SUBSTRATE 56 days leached (fungi [3]): 3 (3=growth on 10-30% of test face); % Improved After 56 days leached (fungal, plaster) (fungi [3]): 14%; MEAN FUNGAL GROWTH RATING - PLASTER SUBSTRATE 28 days as applied (fungi [3]): 4 (4=growth on 30-70% of test face); MEAN FUNGAL GROWTH RATING - PLASTER SUBSTRATE 56 days as applied (fungi [3]): 4 (4=growth on 30-70% of test face); % Improved After 56 days as applied (fungal, plaster) (fungi [3]): 20%; Improvement against fungal growth on the wood surface (fungi [4]): only showed marginal improvement; PF rating (Penicillium funiculosum; 500 ppm a.i.): 5; PF rating (Penicillium funiculosum; 1000 ppm a.i.): 5; AA rating (Alternaria alternata; 500 ppm a.i.): 5; AA rating (Alternaria alternata; 1000 ppm a.i.): 5; Fungi Mean Score (Fungi [1]; 500 ppm a.i.): 5.0; Fungi Mean Score (Fungi [1]; 1000 ppm a.i.): 5.0; Spectrum of activity (test bacteria and fungi): only display antifungal activity
4 | O=C(Nc1ccc(F)cc1)c1cccc(Oc2cccc(C(F)(F)F)c2)n1 [Picolinafen] |  |  |  |  |  |  |  |  |  |  |  |  |  |  |  |  |  |  |  |  | MEAN ALGAL GROWTH RATING 28 days (algae): 1.5; MEAN ALGAL GROWTH RATING 56 days (algae): 2.5; % Improved after 56 days (algal growth) (algae): 37.5%; Improvement against algal growth on the plaster surface (algae): exhibited an improvement; MEAN FUNGAL GROWTH RATING - PLASTER SUBSTRATE 28 days leached (fungi [3]): 3 (3=growth on 10-30% of test face); MEAN FUNGAL GROWTH RATING - PLASTER SUBSTRATE 56 days leached (fungi [3]): 3.5; % Improved After 56 days leached (fungal, plaster) (fungi [3]): 0%; MEAN FUNGAL GROWTH RATING - PLASTER SUBSTRATE 28 days as applied (fungi [3]): 4.5; MEAN FUNGAL GROWTH RATING - PLASTER SUBSTRATE 56 days as applied (fungi [3]): 5 (5=growth on 70-100% of test face); % Improved After 56 days as applied (fungal, plaster) (fungi [3]): 0%; Improvement against fungal growth on the wood surface (fungi [4]): only showed marginal improvement; Aq. Solubility (ppm) [2]: 0.004 ppm
5 | Metiram |  |  |  |  |  |  |  |  |  |  |  |  |  |  |  |  |  |  |  |  | Aq. Solubility (ppm) [2]: 2.7 ppm
